{"source": "patent US20120157405A1", "about": "“Methods and Compositions for the Treatment of \"Burning Feet Syndrome\"” (priority 2010, published 2012)", "origin": "cited, not measured here", "key": {"[1]": {"test_system": "diabetic neuropathy", "conditions": "double-blind trial"}, "[2]": {"test_system": "microcirculation"}, "[3]": {"test_system": "neuropathic pain", "conditions": "double-blind study"}, "[4]": {"test_system": "symptomatic diabetic polyneuropathy"}, "[5]": {"test_system": "symptomatic diabetic polyneuropathy", "conditions": "symptomatic diabetic polyneuropathy and compressive radiculopathy syndrome from disc-nerve root conflict"}, "[6]": {"test_system": "mild diabetic neuropathy", "conditions": "480 mg daily, after 12 months"}, "[7]": {"test_system": "Diabetes-Induced Oxidative Stress In Gastrointestinal Tissues", "conditions": "exogenously administered, diabetic rats"}, "[8]": {"test_system": "jejunal transport of water, Na and Cl", "conditions": "in vivo jejunal perfusion"}, "[9]": {"test_system": "diabetic neuropathy", "conditions": "animal studies"}, "[10]": {"test_system": "streptozotocin-induced diabetic rats", "conditions": "1.4 to 1.5 g/kg body weight, 7 weeks"}, "[11]": {"test_system": "sciatic pain caused by herniated disc"}, "[12]": {"test_system": "chemically induced diabetic rats"}, "[13]": {"test_system": "neuropathy associated with some chemotherapy drugs", "conditions": "two studies"}, "[14]": {"test_system": "diabetic animals"}, "[15]": {"test_system": "cardiac autonomic neuropathy", "conditions": "people with diabetes"}, "[16]": {"test_system": "diabetic neuropathy", "conditions": "over a one-year period"}, "[17]": {"test_system": "neuropathy associated with diabetes"}, "[18]": {"test_system": "painful peripheral diabetic neuropathy", "conditions": "320 mg/day compared to 150 mg/day, over 6 weeks"}, "[19]": {"test_system": "alcoholic polyneuropathy"}, "[20]": {"test_system": "severe diabetic peripheral neuropathy"}, "[21]": {"test_system": "DM arterioles"}, "[22]": {"test_system": "skin irritation", "conditions": "topical adjunct skin care"}, "[23]": {"test_system": "peripheral neuropathy symptoms", "conditions": "niacin alone"}, "[24]": {"test_system": "“Burning Feet Syndrome”", "conditions": "53 cases; parenteral calcium pantothenate given after the other vitamins"}, "[25]": {"test_system": "“Burning Feet Syndrome”", "conditions": "6 mg intramuscular injections"}, "[26]": {"test_system": "complications among the major targets of diabetes", "conditions": "in vivo"}, "[27]": {"test_system": "vitamin B12 deficiency", "conditions": "oral supplementation only"}, "[28]": {"test_system": "peripheral neuropathy", "conditions": "daily high-dose supplementation for two years, person"}, "[29]": {"test_system": "nerve conduction and function", "conditions": "900 mg, six-month study"}, "[30]": {"conditions": "after one year of treatment, all patients"}}, "note": "Where two headings read alike, the source gives them in different places.", "data": [{"compound": "O=C(O)CCCCC1CCSS1", "note": "(stereo not drawn) [Alpha-lipoic acid]", "values": [{"measurement": "sensory symptoms and pain of diabetic neuropathy", "setting": "[1]", "value": "rapidly and significantly reduces sensory symptoms and pain of diabetic neuropathy"}, {"measurement": "acute microcirculation occlusion", "setting": "[2]; in vivo", "value": "significantly improve"}, {"measurement": "microcirculation", "setting": "[2]; patients with diabetic polyneuropathy", "value": "significant improvement in microcirculation"}, {"measurement": "nerve functionality and neuropathic pain", "setting": "[3]", "value": "helped the recovery of nerve functionality and decrease neuropathic pain"}, {"measurement": "time at which TSS improvement was noted", "setting": "[4]; oral 600 milligrams and 1200 milligrams", "value": 2, "unit": "weeks"}, {"measurement": "side effects", "setting": "[4]; oral 600 to 1800 milligrams", "value": "dose-dependent increase in the incidence of nausea"}, {"measurement": "time at which TSS improvement was noted", "setting": "[4]; oral 1800 milligrams", "value": "the end of the first week"}, {"measurement": "Total Symptom Score (TSS)", "setting": "[4]; oral therapy, 600 to 1800 milligrams", "value": "significant improvement"}, {"measurement": "pain, paresthesia, and numbness", "setting": "[5]", "value": "reduced the pain, paresthesia, and numbness"}]}, {"compound": "CCCCC/C=C\\C/C=C\\C/C=C\\CCCCC(=O)O", "note": "[GLA, gamma linolenic acid]", "values": [{"measurement": "outcome versus placebo group", "setting": "[6]", "value": "significantly better than the placebo group"}]}, {"compound": "N=C(N)NCCC[C@H](N)C(=O)O", "note": "[L-arginine]", "values": [{"measurement": "oxidative stress in the gastrointestinal tract", "setting": "[7]", "value": "decrease the oxidative stress in the gastrointestinal tract"}, {"measurement": "jejunal transport of water, Na and Cl", "setting": "[8]", "value": "dose-dependent pro-secretor effect"}]}, {"compound": "CC(=O)N[C@@H](CS)C(=O)O", "note": "[NAC, N-Acetylcysteine]", "values": [{"measurement": "neuropathy", "setting": "[9]", "value": "can inhibit diabetic neuropathy and protect against neuropathies caused by chemotherapy drugs"}, {"measurement": "effect on diabetic neuropathy", "setting": "[10]", "value": "protective effects"}]}, {"compound": "O=C(O)CCCCC1CCSS1", "note": "(centres unmarked) [Thioctic acid]", "values": [{"measurement": "treatment of sciatic pain", "setting": "[11]", "value": "appears to be effective"}]}, {"compound": "CC(=O)O[C@H](CC(=O)[O-])C[N+](C)(C)C", "note": "[acetyl-L-carnitine]", "values": [{"measurement": "nerve dysfunctions", "setting": "[12]", "value": "A number of nerve dysfunctions were corrected"}, {"measurement": "chemotherapy-associated neuropathy", "setting": "[13]", "value": "can limit the neuropathy"}, {"measurement": "effects on glucose, insulin, or free fatty acids levels", "setting": "[14]; diabetic animals", "value": "without any adverse effects"}, {"measurement": "nerve conduction velocity", "setting": "[14]; diabetic animals", "value": "maintained near normal nerve conduction velocity"}, {"measurement": "nerve regeneration", "setting": "[14]; diabetic nerve degeneration and neuropathy, after experimental injury", "value": "accelerated nerve regeneration"}, {"measurement": "cardiac autonomic neuropathy", "setting": "[15]", "value": "appeared to help prevent or slow cardiac autonomic neuropathy"}, {"measurement": "nerve conduction velocity and pain", "setting": "[16]", "value": "improved nerve conduction velocity and reduced pain"}, {"measurement": "sural nerve fiber numbers and regenerating nerve fiber clusters", "setting": "[17]; 52 weeks", "value": "significant improvement"}, {"measurement": "vibratory perception", "setting": "[17]; both studies", "value": "improved"}, {"measurement": "pain", "setting": "[17]; daily doses of 500 mg and 1000 mg, 52 weeks", "value": "significant reductions in pain"}]}, {"compound": "C/C(=C(\\CCOP(=O)(O)O)SC(=O)c1ccccc1)N(C=O)Cc1cnc(C)nc1N", "note": "[benfotiamine]", "values": [{"measurement": "therapeutic effectiveness", "setting": "[18]", "value": "most effective in large doses"}, {"measurement": "alcoholic polyneuropathy", "setting": "[19]; benfotiamine versus combination with vitamin B6 and B12", "value": "significant improvement"}, {"measurement": "adverse effects", "setting": "[19]; double-blind study", "value": "no therapy-specific adverse effects"}, {"measurement": "pain and co-ordination", "setting": "[19]; double-blind study", "value": "improvement was evident"}]}, {"compound": "O=C(O)CCCC[C@@H]1SC[C@@H]2NC(=O)N[C@@H]21", "note": "[biotin]", "values": [{"measurement": "paresthesias", "setting": "[20]; [30]", "value": "free of paresthesias"}, {"measurement": "walking distance without help", "setting": "[20]; [30]", "value": "more than 300 meters"}, {"measurement": "symptoms of peripheral neuropathy", "setting": "[20]; within four to eight weeks after biotin administration", "value": "objective improvement"}]}, {"compound": "COc1cc(/C=C/C(=O)CC(=O)/C=C/c2ccc(O)c(OC)c2)ccc1O", "note": "[curcumin]", "values": [{"measurement": "intracellular superoxide anion (O2) production", "setting": "[21]; DM arterioles, hydroethidine probe, low or high doses", "value": "significantly reduced"}, {"measurement": "diabetes-induced vascular PKC-β11 expression", "setting": "[21]; high dose", "value": "diminished"}, {"measurement": "Acetylcholine (ACh) responses", "setting": "[21]; low and high doses (30 and 300 mg/kg)", "value": "significantly improved"}]}, {"compound": "CC(C)(CO)[C@@H](O)C(=O)NCCCO", "note": "[dexpanthenol]", "values": [{"measurement": "symptoms of skin irritation (dryness, roughness, scaling, pruritus, erythema, erosion/fissure)", "setting": "[22]", "value": "considerably improves symptoms of skin irritation"}]}, {"compound": "O=C(O)c1cccnc1", "note": "[niacin]", "values": [{"measurement": "peripheral neuropathy symptoms", "setting": "[23]", "value": "does not help peripheral neuropathy symptoms"}]}, {"compound": "O=C(O)c1cccnc1", "note": "[nicotinic acid]", "values": [{"measurement": "outcome of treatment of “Burning Feet Syndrome”", "setting": "[24]", "value": "failed"}]}, {"compound": "Cc1cc2nc3c(=O)[nH]c(=O)nc-3n(C[C@H](O)[C@H](O)[C@H](O)CO)c2cc1C", "note": "[riboflavin]", "values": [{"measurement": "adverse reactions", "setting": "[25]", "value": "no reported adverse reactions"}, {"measurement": "time until the burning pain subsided", "setting": "[25]", "value": "≤ 3", "unit": "days"}, {"measurement": "outcome of treatment of “Burning Feet Syndrome”", "setting": "[24]", "value": "failed"}]}, {"compound": "NCCS(=O)(=O)O", "note": "[taurine]", "values": [{"measurement": "severity of complications of diabetes (retina, neuron, kidney)", "setting": "[26]", "value": "diminishes the severity of complications"}]}, {"compound": "Cc1ncc(C[n+]2csc(CCO)c2C)c(N)n1", "note": "[thiamine]", "values": [{"measurement": "outcome of treatment of “Burning Feet Syndrome”", "setting": "[24]", "value": "failed"}]}, {"compound": "calcium pantothenate", "values": [{"measurement": "outcome of treatment of “Burning Feet Syndrome”", "setting": "[24]", "value": "cure"}]}, {"compound": "vitamin B12", "values": [{"measurement": "patients with low B12 levels whose deficiency was corrected", "setting": "[27]", "value": "~50", "unit": "%"}]}, {"compound": "vitamin E", "values": [{"measurement": "disease progression and neuropathy", "setting": "[28]", "value": "slowed disease progression and produced significant improvement in their neuropathy"}, {"measurement": "nerve conduction", "setting": "[29]", "value": "mild to moderate defective nerve conduction was improved"}]}]}
